Data reported in US11208423B2, “Pyridinamine-pyridone and pyrimidinamine- pyridone compounds” (Sprint Bioscience AB, priority 2017, dated 2021).

Tests used:
Vps34 enzyme = Vps34 enzyme (Homo sapiens (Human), UniProt Q8NEB9); assay: Vps34 Biochemical Assay (Adapta kinase assay); conditions: 20 μM ATP / 200 μM PI:PS substrate mix, 1 h at room temperature, TR-FRET, read-out: Median IC50 nM Adapta
Experimental: Dilution series of compounds of the invention were prepared in DMSO at 100 times the final assay concentration (n1=n0/3 in 10 points). The compounds were further diluted to 4 times the assay concentration in assay buffer (Life technologies buffer Q, PV5125, diluted 5 times supplemented with 2 mM DTT and 2 mM MnCl2). 2.5 μl of the diluted compounds were added to a 384 well assay plate followed by 2.5 μl of 16.5 nM Vps34 enzyme (Life technologies, PV5126). Enzyme and compounds were pre-incubated at rt for 15 min. Then 5 μl of substrate mix containing 20 μM ATP (Life technologies, PV3227) and 200 μM PI:PS substrate (Life technologies, PV5122) in assay buffer was added to the wells containing compound and enzyme. Mixing was performed by pipetting several times. The reaction was incubated at room temperature for 1 h. Then 5 μl stop-detection mix, prepared as described in the Adapta kinase assay kit instructions (Life technologies, PV5099) containing Adapta Eu-anti-ADP antibody (2.3 nM), Alexa Fluor 647 ADP tracer (9 nM) and EDTA (30 mM) in TR-FRET buffer, was added to quench the reaction. Mixing was performed by pipetting several times. The assay plate was then incubated at room temperature for 30 min and read with Artemis micro plate reader. Percent inhibition of the compounds as compared to DMSO treated control samples was calculated. By the use of Dotmatics software compound concentration versus percent inhibition was fitted to generate IC50 values.

[1] = system: autophagy in HOS cells (GFP-LC3); assay: High Content Screening Autophagy Assay (GFP-LC3 foci); type: cell-based; conditions: Homo sapiens; HOS cells expressing GFP-LC3; autophagy activated with KU-0063794 500 nM plus Bafilomycin A1 5 nM; 6 hours; foci area per cell; read-out: Median IC50 (μM) Cellular assay
Experimental: High Content Screening Autophagy Assay
Human osteosarcoma cells (HOS) stably expressing a Green Fluorescent Protein (GFP) tagged LC3 (GFP-LC3) were used to determine the inhibitory effect on autophagy of proprietary compounds. For that purpose, autophagy was activated by using the mTOR inhibitor KU-0063794 at 500 nM in the presence of Bafilomycin A1 (Sigma-Aldrich) at 5 nM. Shortly, cells were plated overnight in clear bottom 96-well plates in DMEM—High Modified media (Hi-Clone Cat #SH30285.01). At the start of the experiment, the media was removed and replaced with fresh media containing the mTOR inhibitor, Bafilomycin A1 and the vehicle or a test compound as indicated. After 6 hours the media was removed, cells were washed twice with ice-cold phosphate buffered saline (PBS) and fixed with 4% paraformaldehyde for 20 minutes at room temperature. Then the cells were washed twice with ice-cold PBS before adding Hoechst 33342 at 1 μg/ml in PBS for nuclear staining. After incubation overnight at 4° C., cells were washed once with PBS to remove the excess of dye and 100 μl of PBS was added to each well. Images were acquired at 20× magnification, 6 images per well, using the ImageXpress automated microscope (Molecular Devices Inc.) and analyzed with MetaXpress software to identify LC3-GFP foci. Foci area per cell values were used to generate dose response curves and IC50 values were calculated using the non-linear fitting analysis in GraphPad Prism software.
The results of the assay are shown in Table 2 (Median IC50 μM HOS-LC3).

Chain of Vps34 enzyme (Q8NEB9 whole entry): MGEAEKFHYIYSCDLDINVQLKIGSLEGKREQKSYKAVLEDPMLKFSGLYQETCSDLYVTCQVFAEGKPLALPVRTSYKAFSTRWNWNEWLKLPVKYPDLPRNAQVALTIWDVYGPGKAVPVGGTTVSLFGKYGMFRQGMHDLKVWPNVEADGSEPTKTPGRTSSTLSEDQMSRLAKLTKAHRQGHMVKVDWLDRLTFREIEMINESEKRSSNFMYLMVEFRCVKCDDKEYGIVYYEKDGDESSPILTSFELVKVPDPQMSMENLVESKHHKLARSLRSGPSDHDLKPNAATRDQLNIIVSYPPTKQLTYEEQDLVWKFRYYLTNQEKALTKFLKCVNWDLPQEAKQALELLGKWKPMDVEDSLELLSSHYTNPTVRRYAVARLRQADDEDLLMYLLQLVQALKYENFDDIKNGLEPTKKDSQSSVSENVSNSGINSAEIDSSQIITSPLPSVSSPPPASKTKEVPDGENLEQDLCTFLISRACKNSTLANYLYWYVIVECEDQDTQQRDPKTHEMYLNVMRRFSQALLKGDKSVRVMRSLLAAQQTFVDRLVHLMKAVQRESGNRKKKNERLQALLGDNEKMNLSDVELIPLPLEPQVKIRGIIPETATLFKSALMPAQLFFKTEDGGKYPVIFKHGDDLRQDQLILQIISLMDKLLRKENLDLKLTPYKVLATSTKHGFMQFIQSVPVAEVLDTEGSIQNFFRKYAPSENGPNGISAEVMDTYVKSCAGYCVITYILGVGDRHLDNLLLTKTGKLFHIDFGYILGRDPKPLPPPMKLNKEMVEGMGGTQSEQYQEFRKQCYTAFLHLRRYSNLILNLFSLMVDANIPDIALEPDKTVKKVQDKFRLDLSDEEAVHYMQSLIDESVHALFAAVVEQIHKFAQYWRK

| IC50 (Vps34 enzyme) | IC50 [1] | SMILES |
| --- | --- | --- |
| < 5 nM | – | Cc1nccc(Nc2cc(-c3cc(N4CCCCC4C(F)(F)F)[nH]c(=O)c3)ccn2)n1 (stereo not drawn) [Example 18, 4-[2-[(2-Methylpyrimidin-4-yl)amino]-4-pyridyl]-6-[2-(trifluoromethyl)-1-piperidyl]-1H-pyridin-2-one] |
| < 5 nM | 0.003 µM | Cc1nccc(Nc2cc(-c3cc(N4CCN(S(=O)(=O)Cc5ccc(F)cc5)CC4C(F)(F)F)[nH]c(=O)c3)ccn2)n1 (stereo not drawn) [Example 33, 6-[4-[(4-Fluorophenyl)methylsulfonyl]-2-(trifluoromethyl)piperazin-1-yl]-4-[2-[(2-methylpyrimidin-4-yl)amino]-4-pyridyl]-1H-pyridin-2-one] |
| < 5 nM | – | Cc1nccc(Nc2cc(-c3cc(-c4ccccc4Cl)[nH]c(=O)c3)ccn2)n1 [Example 66, 6-(2-Chlorophenyl)-4-[2-[(2-methylpyrimidin-4-yl)amino]-4-pyridyl]-1H-pyridin-2-one] |
| 12 nM | – | Cn1cnc(Nc2cc(-c3cc(-c4ccccc4C(F)(F)F)[nH]c(=O)c3)ccn2)c1 [Example 62, 4-[2-[(1-Methylimidazol-4-yl)amino]-4-pyridyl]-6-[2-(trifluoromethyl)phenyl]-1H-pyridin-2-one] |
| < 5 nM | 0.019 µM | O=c1cc(-c2ccnc(Nc3ccccc3)n2)cc(N2CCOCC2)[nH]1 [Example 10, 4-(2-anilinopyrimidin-4-yl)-6-morpholino-1H-pyridin-2-one] |
| < 5 nM | 0.099 µM | Cc1nccc(Nc2cc(-c3cc(-c4cnccc4C)[nH]c(=O)c3)ccn2)n1 [Example 55, 6-(4-Methyl-3-pyridyl)-4-[2-[(2-methylpyrimidin-4-yl)amino]-4-pyridyl]-1H-pyridin-2-one] |
| 13 nM | – | Cc1nc(Nc2cc(-c3cc(N4CCOCC4C(F)(F)F)[nH]c(=O)c3)ccn2)cs1 (stereo not drawn) [Example 42, 4-[2-[(2-Methylthiazol-4-yl)amino]-4-pyridyl]-6-[3-(trifluoromethyl)morpholin-4-yl]-1H-pyridin-2-one] |
| < 5 nM | 0.002 µM | CCS(=O)(=O)N1CCN(c2cc(-c3ccnc(Nc4ccnc(C)n4)c3)cc(=O)[nH]2)C(C(F)(F)F)C1 (stereo not drawn) [Example 39, 6-[4-Ethylsulfonyl-2-(trifluoromethyl)piperazin-1-yl]-4-[2-[(2-methylpyrimidin-4-yl)amino]-4-pyridyl]-1H-pyridin-2-one] |
| < 5 nM | 0.054 µM | O=c1cc(-c2ccnc(Nc3ccccc3)n2)cc(-c2cccnc2)[nH]1 [Example 6, 4-(2-Anilinopyrimidin-4-yl)-6-(3-pyridyl)-1H-pyridin-2-one] |
| 52 nM | – | Cc1nc(Nc2cc(-c3cc(-c4ccccc4C(F)(F)F)[nH]c(=O)c3)ccn2)cs1 [Example 52, 4-[2-[(2-Methylthiazol-4-yl)amino]-4-pyridyl]-6-[2-(trifluoromethyl)phenyl]-1H-pyridin-2-one] |
| < 5 nM | 0.01 µM | Cc1nccc(Nc2cc(-c3cc(N4CCOCC4C(F)(F)F)[nH]c(=O)c3)ccn2)n1 (stereo not drawn) [Example 26, 4-[2-[(2-Methylpyrimidin-4-yl)amino]-4-pyridyl]-6-[3-(trifluoromethyl)morpholin-4-yl]-1H-pyridin-2-one] |
| 6 nM | 0.066 µM | O=c1cc(-c2ccnc(Nc3ccccc3)n2)cc(-c2ccncc2)[nH]1 [Example 8, 4-(2-Anilinopyrimidin-4-yl)-6-(4-pyridyl)-1H-pyridin-2-one] |
| < 5 nM | 0.02 µM | O=c1cc(-c2ccnc(Nc3ccccc3)n2)cc(N2CCOCC2C(F)(F)F)[nH]1 (stereo not drawn) [Example 27, 4-(2-Anilinopyrimidin-4-yl)-6-[3-(trifluoromethyl)morpholin-4-yl]-1H-pyridin-2-one] |
| < 5 nM | 0.003 µM | Cc1nccc(Nc2cc(-c3cc(-c4ccccc4C(F)(F)F)[nH]c(=O)c3)ccn2)n1 [Example 47, 4-[2-[(2-Methylpyrimidin-4-yl)amino]-4-pyridyl]-6-[2-(trifluoromethyl)phenyl]-1H-pyridin-2-one] |
| < 5 nM | – | O=c1cc(-c2ccnc(Nc3ccccc3)n2)cc(N2CCCCC2C(F)(F)F)[nH]1 (stereo not drawn) [Example 21, 4-(2-Anilinopyrimidin-4-yl)-6-[2-(trifluoromethyl)-1-piperidyl]-1H-pyridin-2-one] |
| < 5 nM | 0.029 µM | O=c1cc(-c2ccnc(Nc3ncco3)c2)cc(N2CCOCC2C(F)(F)F)[nH]1 (stereo not drawn) [Example 40, 4-[2-(Oxazol-2-ylamino)-4-pyridyl]-6-[3-(trifluoromethyl)morpholin-4-yl]-1H-pyridin-2-one] |
| < 5 nM | – | O=c1cc(-c2ccnc(Nc3ccccc3)n2)cc(-c2ccccc2Cl)[nH]1 [Example 4, 4-(2-anilinopyrimidin-4-yl)-6-(2-chlorophenyl)-1H-pyridin-2-one] |
| < 5 nM | 0.006 µM | Cc1nccc(Nc2cc(-c3cc(-c4cccnc4C(F)(F)F)[nH]c(=O)c3)ccn2)n1 [Example 57, 4-[2-[(2-Methylpyrimidin-4-yl)amino]-4-pyridyl]-6-[2-(trifluoromethyl)-3-pyridyl]-1H-pyridin-2-one] |
| < 5 nM | 0.005 µM | CCn1cc(-c2cc(-c3ccnc(Nc4ccnc(C)n4)c3)cc(=O)[nH]2)c(C(F)(F)F)n1 [Example 59, 6-[1-Ethyl-3-(trifluoromethyl)pyrazol-4-yl]-4-[2-[(2-methylpyrimidin-4-yl)amino]-4-pyridyl]-1H-pyridin-2-one] |
| 55 nM | 0.254 µM | Cn1nccc1Nc1cc(-c2cc(-c3ccccc3C(F)(F)F)[nH]c(=O)c2)ccn1 [Example 50, 4-[2-[(2-Methylpyrazol-3-yl)amino]-4-pyridyl]-6-[2-(trifluoromethyl)phenyl]-1H-pyridin-2-one] |
